Results as given in patent US12285460B2, “Pharmaceutical compositions” (RHYTHM PHARMACEUTICALS, INC., priority 2013, dated 2025).
Bridge positions count the residues as written; N and C are the ends. Square brackets hold non-standard residues; d marks the D form. Peptide text beside a SMILES is read from it.

Legend:
Assay type in all cases: cell-based
MC3R = target: T1, MC3R (Homo sapiens, UniProt P41968); assay: cAMP assay (EC50), MC3R; settings: EC50(MC3R)/EC50(MC4R)
T1 construct: host or cells: CHO-K1 (ECL assay)
Description: (§1) Stimulation of intracellular cyclic AMP (cAMP) levels by the peptides is determined in a dose dependent manner by an electrochemiluminescence (ECL) assay (Meso Scale Discovery, Gaithersburg, MD, USA; referred to hereinafter as “MSD”). Briefly, the CHO-K1 cells stably expressing the hMC receptor subtypes are suspended in RMPI 1640® assay buffer (RMPI 1640 buffer contains 0.5 mM IBMX, and 0.2% protein cocktail (MSD blocker A)). About 7,000 cells/well of the transgenic CHO-K1 cells stably expressing hMC receptor subtypes 1, 3, 4 or 5 are dispensed in 384-well Multi-Array plates (MSD) containing integrated carbon electrodes and coated with anti-cAMP antibody. Increasing concentrations of the test compounds are added and the cells are incubated for approximately 40 minutes at 37° C. A cell lysis buffer (HEPES-buffered saline solution with MgCl2 and Triton X-100® at pH 7.3) containing 0.2% protein cocktail and 2.5 nM TAG™ ruthenium-labeled cAMP (MSD) is added and the cells are incubated for approximately 90 minutes at room temperature. At the end of the second incubation period, the read buffer (Tris-buffered solution containing an ECL co-reactant and Triton X-100 at pH 7.8) is added and the cAMP levels in the cell lysates are immediately determined by ECL detection with a Sector Imager 6000 Reader® (MSD). Data are analyzed using a computer-assisted non-linear regression analysis (XL fit; IDBS) and reported as either an EC50 value.
(§2) Human MC4-R transfected cells are grown to confluence in 96 well plates (plating approximately 250,000 cells per well). The cells are treated in triplicate sets with 0.2 mM isobutylmethylxanthine (IBMX) and graded concentrations of the peptide or alternatively the peptide in the presence of 20 nM NDP-MSH. Cells similarly treated but with only 20 nM NDP-MSH serve as positive controls in a volume of 200 μL. A buffer blank serving as a negative control is also included. After incubation of one hour at 37° C., the cells are lysed by the addition of 50 μL of a cell lysis buffer. Total cAMP accumulated in 250 μL of this incubation medium is quantitated using a commercially available low pH cAMP assay kit (Amersham BioSciences) as per procedure specified by the kit supplier. […] The data for agonist is plotted and curve fitted to determine the EC50 value. A peptide showing accumulation in the same range as the negative control (buffer blank in the absence of alpha-MSH) is ineffective at the test concentration. A peptide showing attenuated accumulation is considered to be an antagonist if there is inhibition in cAMP when alpha-MSH is also present in the assay. Similar assay can be performed with hMC-1R, hMC-3R, and hMC-5R cells.
(§3) A chemiluminescence readout system that uses an enzyme fragment complementation (EFC) system with β-galactosidase (β-Gal) as the functional reporter system was used. This assay system for various melanocortin receptor systems is commercially available (cAMP Hunter GPCR assay system, Discoverx Corp, Fremont, CA). This assay utilizes the β-Gal enzyme that is split into two complementary portions; EA for Enzyme Acceptor and ED for Enzyme Donor. In the assay, the ED portion fused to cAMP is made to compete with cAMP generated by cells for binding to a cAMP-specific antibody. The EA is then added to form active β-Gal with any unbound ED-cAMP.
(§4) Briefly, 10000 cells per well are plated overnight and each well (cells incubated with 10 μl assay buffer) is then incubated with 4× serial concentration of the test compound in the cell assay buffer (5 μL) and cAMP antibody reagent (5 μL) for 30 min at 37° C. The cell lysis buffer (20 μL) containing ED-cAMP coupled enzyme fragment and the reporter substrate (Emerald II-Galacton Star, 5:1) is then added and incubated for 60 min at room temperature. Next, 20 μL of EA β-Gal fragment reagent is added.

MC1R = target: T2, MC1R (Homo sapiens, UniProt Q01726); assay: cAMP assay (EC50), MC1R; settings: EC50(MC1R)/EC50(MC4R)
T2 construct: host or cells: CHO-K1 (ECL assay)
Description: as §1, §2, §3, §4

MC5R = target: T3, MC5R (Homo sapiens, UniProt P33032); assay: cAMP assay (EC50), MC5R; settings: EC50(MC5R)/EC50(MC4R)
T3 construct: host or cells: CHO-K1 (ECL assay)
Description: Stimulation of intracellular cyclic AMP (cAMP) levels by the peptides is determined in a dose dependent manner by an electrochemiluminescence (ECL) assay (Meso Scale Discovery, Gaithersburg, MD, USA; referred to hereinafter as “MSD”). Briefly, the CHO-K1 cells stably expressing the hMC receptor subtypes are suspended in RMPI 1640® assay buffer (RMPI 1640 buffer contains 0.5 mM IBMX, and 0.2% protein cocktail (MSD blocker A)). About 7,000 cells/well of the transgenic CHO-K1 cells stably expressing hMC receptor subtypes 1, 3, 4 or 5 are dispensed in 384-well Multi-Array plates (MSD) containing integrated carbon electrodes and coated with anti-cAMP antibody. Increasing concentrations of the test compounds are added and the cells are incubated for approximately 40 minutes at 37° C. A cell lysis buffer (HEPES-buffered saline solution with MgCl2 and Triton X-100® at pH 7.3) containing 0.2% protein cocktail and 2.5 nM TAG™ ruthenium-labeled cAMP (MSD) is added and the cells are incubated for approximately 90 minutes at room temperature. At the end of the second incubation period, the read buffer (Tris-buffered solution containing an ECL co-reactant and Triton X-100 at pH 7.8) is added and the cAMP levels in the cell lysates are immediately determined by ECL detection with a Sector Imager 6000 Reader® (MSD). Data are analyzed using a computer-assisted non-linear regression analysis (XL fit; IDBS) and reported as either an EC50 value. […]
as §3, with “ED-cAMP. This active enzyme then converts a chemiluminescent substrate to generate an output signal that is recorded on a standard microplate reader.” for “ED-cAMP.”
as §4

T3 sequence (P33032 whole entry): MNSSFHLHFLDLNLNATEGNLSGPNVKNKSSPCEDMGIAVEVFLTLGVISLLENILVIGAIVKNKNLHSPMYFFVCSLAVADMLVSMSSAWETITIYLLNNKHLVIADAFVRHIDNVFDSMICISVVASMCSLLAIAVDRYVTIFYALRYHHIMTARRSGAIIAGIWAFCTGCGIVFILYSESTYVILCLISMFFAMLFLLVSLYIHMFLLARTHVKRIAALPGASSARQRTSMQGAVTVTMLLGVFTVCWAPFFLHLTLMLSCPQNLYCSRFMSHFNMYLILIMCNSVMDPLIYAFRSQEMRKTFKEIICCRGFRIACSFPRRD
T2 sequence (Q01726 whole entry): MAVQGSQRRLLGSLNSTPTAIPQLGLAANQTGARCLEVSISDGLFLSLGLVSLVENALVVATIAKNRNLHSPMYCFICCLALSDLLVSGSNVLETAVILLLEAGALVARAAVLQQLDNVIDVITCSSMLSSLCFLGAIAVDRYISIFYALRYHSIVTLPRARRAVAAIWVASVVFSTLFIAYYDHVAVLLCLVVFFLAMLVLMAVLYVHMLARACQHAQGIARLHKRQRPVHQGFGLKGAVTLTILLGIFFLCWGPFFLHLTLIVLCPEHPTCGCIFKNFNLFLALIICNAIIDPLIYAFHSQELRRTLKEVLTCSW
T1 sequence (P41968 whole entry): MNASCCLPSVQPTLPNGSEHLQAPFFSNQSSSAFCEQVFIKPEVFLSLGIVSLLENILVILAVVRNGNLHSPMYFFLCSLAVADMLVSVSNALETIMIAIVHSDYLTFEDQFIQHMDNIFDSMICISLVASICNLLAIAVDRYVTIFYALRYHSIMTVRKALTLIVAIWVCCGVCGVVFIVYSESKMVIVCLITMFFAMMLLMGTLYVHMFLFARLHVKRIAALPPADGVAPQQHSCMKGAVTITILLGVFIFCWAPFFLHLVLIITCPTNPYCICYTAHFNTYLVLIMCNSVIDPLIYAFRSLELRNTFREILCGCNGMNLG

CC(=O)N[C@@H](CCCNC(=N)N)C(=O)N[C@H]1CSSC[C@@H](C(N)=O)NC(=O)[C@H](Cc2c[nH]c3ccccc23)NC(=O)[C@H](CCCNC(=N)N)NC(=O)[C@@H](Cc2ccccc2)NC(=O)[C@H](Cc2c[nH]cn2)NC(=O)[C@@H](CC(C)C)NC1=O [Compound 1, Ac-Arg-cyclo[Cys-D-Leu-His-D-Phe-Arg-Trp-Cys]-NH2]
Ratios of EC50 values MC3/4 (MC3R): 1.13 | Ratios of EC50 values MC1/4 (MC1R): 0.68 | Ratios of EC50 values MC5/4 (MC5R): 130

CC[C@@H](C)[C@H]1NC(=O)[C@@H](NC(=O)[C@H](CCCNC(=N)N)NC(C)=O)CSSC[C@@H](C(N)=O)NC(=O)[C@H](Cc2c[nH]c3ccccc23)NC(=O)[C@H](CCCNC(=N)N)NC(=O)[C@@H](Cc2ccccc2)NC(=O)[C@H](Cc2c[nH]cn2)NC1=O [Compound 2, Ac-Arg-cyclo[Cys-D-Ile-His-D-Phe-Arg-Trp-Cys]-NH2]
Ratios of EC50 values MC3/4 (MC3R): 0.96 | Ratios of EC50 values MC1/4 (MC1R): 0.69 | Ratios of EC50 values MC5/4 (MC5R): 420

CC(=O)N[C@@H](CCCNC(=N)N)C(=O)N[C@H]1CSSC[C@@H](C(N)=O)NC(=O)[C@H](Cc2c[nH]c3ccccc23)NC(=O)[C@H](CCCNC(=N)N)NC(=O)[C@@H](Cc2ccccc2)NC(=O)[C@H](Cc2c[nH]cn2)NC(=O)[C@@H](C(C)(C)C)NC1=O [Compound 3, Ac-Arg-cyclo[Cys-D-Tie-His-D-Phe-Arg-Trp-Cys]-NH2]
Ratios of EC50 values MC3/4 (MC3R): 1 | Ratios of EC50 values MC1/4 (MC1R): 1 | Ratios of EC50 values MC5/4 (MC5R): 930

CC(=O)N[C@@H](CCCNC(=N)N)C(=O)N[C@H]1CSSC[C@@H](C(N)=O)NC(=O)[C@H](Cc2c[nH]c3ccccc23)NC(=O)[C@H](CCCNC(=N)N)NC(=O)[C@@H](Cc2ccccc2)NC(=O)[C@H](Cc2c[nH]cn2)NC(=O)[C@@H](C(C)C)NC1=O [Compound 4, Ac-Arg-cyclo[Cys-D-Val-His-D-Phe-Arg-Trp-Cys]-NH2]
Ratios of EC50 values MC3/4 (MC3R): 1.19 | Ratios of EC50 values MC1/4 (MC1R): 0.93 | Ratios of EC50 values MC5/4 (MC5R): 584

CC(=O)N[C@@H](CCCNC(=N)N)C(=O)N[C@H]1CSSC[C@@H](C(N)=O)NC(=O)[C@H](Cc2c[nH]c3ccccc23)NC(=O)[C@H](CCCNC(=N)N)NC(=O)[C@@H](Cc2ccccc2)NC(=O)[C@H](Cc2cncn2C)NC(=O)[C@@H](C)NC1=O [Compound 5, Ac-Arg-cyclo[Cys-D-Ala-His(3-Me)-D-Phe-Arg-Trp-Cys]-NH2]
Ratios of EC50 values MC3/4 (MC3R): 350 | Ratios of EC50 values MC1/4 (MC1R): 4 | Ratios of EC50 values MC5/4 (MC5R): 945

CC(=O)N[C@@H](CCCNC(=N)N)C(=O)N[C@H]1CSSC[C@@H](C(N)=O)NC(=O)[C@H](Cc2c[nH]c3ccccc23)NC(=O)[C@H](CCCNC(=N)N)NC(=O)[C@@H](Cc2ccccc2)NC(=O)[C@H](Cc2cn(C)cn2)NC(=O)[C@@H](C)NC1=O [Compound 6, Ac-Arg-cyclo[Cys-D-Ala-His(1-Me)-D-Phe-Arg-Trp-Cys]-NH2]
Ratios of EC50 values MC3/4 (MC3R): 6 | Ratios of EC50 values MC1/4 (MC1R): 40 | Ratios of EC50 values MC5/4 (MC5R): 662

CC(=O)N[C@@H](CCCNC(=N)N)C(=O)N[C@H]1CSSC[C@@H](C(N)=O)NC(=O)[C@H](Cc2c[nH]c3ccccc23)NC(=O)[C@H](CCCNC(=N)N)NC(=O)[C@@H](Cc2ccccc2)NC(=O)[C@H](Cc2c[nH]c3ccccc23)NC(=O)[C@@H](C)NC1=O [Compound 7, Ac-Arg-cyclo[Cys-D-Ala-Trp-D-Phe-Arg-Trp-Cys]-NH2] (Ac-RC[dA]W[dF]RWC-NH2; disulfide 2-8)
Ratios of EC50 values MC3/4 (MC3R): >290 | Ratios of EC50 values MC1/4 (MC1R): 8 | Ratios of EC50 values MC5/4 (MC5R): 7

CC(=O)N[C@@H](CCCNC(=N)N)C(=O)N[C@H]1CSSC[C@@H](C(N)=O)NC(=O)[C@H](Cc2c[nH]c3ccccc23)NC(=O)[C@H](CCCNC(=N)N)NC(=O)[C@@H](Cc2ccccc2)NC(=O)[C@H](CCC(N)=O)NC(=O)[C@@H](C)NC1=O [Compound 8, Ac-Arg-cyclo[Cys-D-Ala-Gln-D-Phe-Arg-Trp-Cys]-NH2] (Ac-RC[dA]Q[dF]RWC-NH2; disulfide 2-8)
Ratios of EC50 values MC3/4 (MC3R): 5 | Ratios of EC50 values MC1/4 (MC1R): 40 | Ratios of EC50 values MC5/4 (MC5R): 155

CC(=O)N[C@@H](CCCNC(=N)N)C(=O)N[C@H]1CSSC[C@@H](C(N)=O)NC(=O)[C@H](Cc2c[nH]c3ccccc23)NC(=O)[C@H](CCCNC(=N)N)NC(=O)[C@@H](Cc2ccccc2)NC(=O)[C@H](CC(N)=O)NC(=O)[C@@H](C)NC1=O [Compound 9, Ac-Arg-cyclo[Cys-D-Ala-Asn-D-Phe-Arg-Trp-Cys]-NH2] (Ac-RC[dA]N[dF]RWC-NH2; disulfide 2-8)
Ratios of EC50 values MC3/4 (MC3R): 30 | Ratios of EC50 values MC1/4 (MC1R): 90 | Ratios of EC50 values MC5/4 (MC5R): 530

CC(=O)N[C@@H](CCCNC(=N)N)C(=O)N[C@H]1CSSC[C@@H](C(N)=O)NC(=O)[C@H](Cc2c[nH]c3ccccc23)NC(=O)[C@H](CCCNC(=N)N)NC(=O)[C@@H](Cc2ccccc2)NC(=O)[C@H](CCCNC(=N)N)NC(=O)[C@@H](C)NC1=O [Compound 10, Ac-Arg-cyclo[Cys-D-Ala-Arg-D-Phe-Arg-Trp-Cys]-NH2] (Ac-RC[dA]R[dF]RWC-NH2; disulfide 2-8)
Ratios of EC50 values MC3/4 (MC3R): 1.45 | Ratios of EC50 values MC1/4 (MC1R): 2.31

CC(=O)N[C@@H](CCCNC(=N)N)C(=O)N[C@H]1CSSC[C@@H](C(N)=O)NC(=O)[C@H](Cc2c[nH]c3ccccc23)NC(=O)[C@H](CCCNC(=N)N)NC(=O)[C@@H](Cc2ccccc2)NC(=O)[C@H](Cc2ccc(O)cc2)NC(=O)[C@@H](C)NC1=O [Compound 11, Ac-Arg-cyclo[Cys-D-Ala-Tyr-D-Phe-Arg-Trp-Cys]-NH2] (Ac-RC[dA]Y[dF]RWC-NH2; disulfide 2-8)
Ratios of EC50 values MC3/4 (MC3R): >22.2 | Ratios of EC50 values MC1/4 (MC1R): 6.67

CC(=O)N[C@@H](CCCNC(=N)N)C(=O)N[C@H]1CSSC[C@@H](C(N)=O)NC(=O)[C@H](Cc2c[nH]c3ccccc23)NC(=O)[C@H](CCCNC(=N)N)NC(=O)[C@@H](Cc2ccccc2)NC(=O)[C@@H]2CCCN2C(=O)[C@@H](C)NC1=O [Compound 13, Ac-Arg-cyclo[Cys-D-Ala-Pro-D-Phe-Arg-Trp-Cys]-NH2] (Ac-RC[dA]P[dF]RWC-NH2; disulfide 2-8)
Ratios of EC50 values MC3/4 (MC3R): >200 | Ratios of EC50 values MC1/4 (MC1R): 5 | Ratios of EC50 values MC5/4 (MC5R): 13
